This is an account of results in ChEMBL document CHEMBL4043221, “Natural neuro-inflammatory inhibitors from Caragana turfanensis” (Bioorg Med Chem Lett, 2017).

Where only a bound is given, the exact number is not on record here.

Series [1] has as its system BV-2. The series is described as follows: Antineuroinflammatory activity in mouse BV2 cells assessed as inhibition of LPS-induced NO production after 24 hrs in presence of LPS by Griess reaction based assay. The format is functional, cell-based. Conditions: BV-2, 24 h.
Series [2] relates to BV-2. As to the kind of experiment: Cytotoxicity against mouse BV2 cells assessed as reduction in cell viability at 1 to 100 uM after 24 hrs in presence of LPS by MTT assay. It counts as cell-based. As to conditions: bv-2, 24 h. Background: Tetrazolium assays rely on reduction of a dye to a coloured formazan, in cell work by metabolically active cells.

By IC50 is commonly meant the concentration that inhibits the measured activity by half. Turning to `O=c1c(-c2ccc(O)c(O)c2)coc2cc(O)ccc12`, the IC50 with BV-2 [1] is over 100 µM.

On to `CC[C@H](CC[C@@H](C)[C@H]1CC[C@H]2[C@@H]3C(=O)C=C4C[C@@H](O)CC[C@]4(C)[C@H]3CC[C@]12C)C(C)C`, for which, in the series with BV-2 [1], the IC50 is over 100 µM.

For `COc1cc([C@H]2OC[C@H]3[C@@H]2CO[C@@H]3c2ccc(O)c(OC)c2)ccc1O`, in the series on BV-2 [2], the Activity entry is reported as “Non-Toxic”. Besides, in the series with BV-2 [1], the IC50 came to 76.2 µM.

Regarding `COc1ccc(-c2coc3c(O)c(O)ccc3c2=O)cc1O`, in the series on BV-2 [2], the Activity entry is “Non-Toxic”. In addition, the IC50 in the series on BV-2 [1] was determined as 6.87 µM.

Consider `COc1cc([C@@H]2OC[C@@H]3[C@H]2CO[C@H]3c2cc(OC)c(O)c(OC)c2)cc(OC)c1O`, for which the IC50 with BV-2 [1] is over 100 µM.

`COc1cc([C@H]2OC[C@@H]3[C@H]2CO[C@@H]3c2cc(OC)c(O)c(OC)c2)ccc1O`: the IC50 with BV-2 [1] was over 100 µM.

For the molecule `O=C1CC(c2cc(O)cc(O)c2)Oc2cc(O[C@@H]3O[C@H](CO)[C@@H](O)[C@H](O)[C@H]3O)cc(O)c21` (some centres undefined), the IC50 in the series on BV-2 [1] is over 100 µM.

As to `Oc1cc(O)c2c(c1)C1C(c3cc(O)cc(O)c3[C@H]1c1ccc(O)c(O)c1)[C@@H]2c1ccc(O)c(O)c1` (some centres undefined), in the series with BV-2 [1], the IC50 was over 100 µM.

Take `COc1cc(O)c(-c2cc3ccc(O)cc3oc2=O)cc1OC`: in the series with BV-2 [2], the Activity entry is given as “Non-Toxic”. Moreover, the IC50 in the series with BV-2 [1] was 1.01 µM.

For `CCCCCCCCCCCCCCCCCCCCCCCCOC(=O)/C=C/c1ccc(O)c(OC)c1`, the IC50 in the series on BV-2 [1] was over 100 µM.

With `COc1cc([C@H]2OC[C@H]3[C@@H]2CO[C@H]3c2cc(OC)c(O)c(OC)c2)cc(OC)c1O`, the concentration for half-maximal inhibition (IC50) with BV-2 [1] was over 100 µM.

As for `O=C(C[C@@H](O)c1ccc(O)c(O)c1)c1ccc(O)cc1O`, the Activity result in the series on BV-2 [2] is recorded as “Non-Toxic”. For the same molecule, the 50% inhibitory concentration (IC50) in the series on BV-2 [1] is 72.6 µM.

Take `COc1ccc2c(c1)O[C@H](c1ccc(O)c(O)c1)CC2=O`: the IC50 in the series with BV-2 [1] was over 100 µM.

Consider `C[N+](C)(C)C(Cc1c[nH]c2ccccc12)C(=O)[O-]` (centres undefined), for which, in the series on BV-2 [1], the IC50 was over 100 µM.

With `CCCCCCCCCCCCCCCCCCOC(=O)/C=C/c1ccc(O)c(O)c1`, the 50% inhibitory concentration (IC50) with BV-2 [1] was over 100 µM.

As to `O=C1c2ccc(O)cc2O[C@@H](c2ccc(O)c(O)c2)[C@@H]1O`, the half-inhibitory concentration (IC50) in the series on BV-2 [1] is over 100 µM.

In the case of `COc1ccc(-c2coc3cc(O)ccc3c2=O)cc1O` [CALYCOSIN], the Activity result with BV-2 [2] is listed as “Non-Toxic”. Besides, in the series with BV-2 [1], the IC50 turned out to be 39.6 µM.

Take `O=C(O)/C=C/c1ccccc1` [CINNAMIC ACID]: in the series with BV-2 [1], the IC50 was over 100 µM.

Consider `O=C(O)/C=C/c1ccc(O)cc1` [COUMARIC ACID], for which the half-inhibitory concentration (IC50) in the series on BV-2 [1] was over 100 µM.

As for `O=c1c(O)c(-c2ccc(O)c(O)c2)oc2cc(O)ccc12` [FISETIN], the Activity entry in the series on BV-2 [2] is “Non-Toxic”. In the series with BV-2 [1], the IC50 was determined as 73 µM.

Consider `COc1ccc(-c2coc3cc(O)ccc3c2=O)cc1` [FORMONONETIN], for which, in the series with BV-2 [2], the Activity result is given as “Non-Toxic”. Also, in the series on BV-2 [1], the IC50 is 13.2 µM.

Turning to `CCCCCCCCCCCCCCCCCCCCCCCCCC(=O)O` [HEXACOSANOIC ACID], the IC50 in the series on BV-2 [1] is over 100 µM.

Turning to `O=C(/C=C/c1ccc(O)cc1)c1ccc(O)cc1O` [ISOLIQUIRITIGENIN], the 50% inhibitory concentration (IC50) in the series on BV-2 [1] was over 100 µM.

Regarding `COc1cc([C@H]2OC[C@H]3[C@@H]2CO[C@@H]3c2cc(OC)c(O[C@@H]3O[C@H](CO)[C@@H](O)[C@H](O)[C@H]3O)c(OC)c2)cc(OC)c1O[C@@H]1O[C@H](CO)[C@@H](O)[C@H](O)[C@H]1O` [LIRIODENDRIN], the IC50 in the series with BV-2 [1] was over 100 µM.

Regarding `C=C(C)[C@@H]1CC[C@]2(C)CC[C@]3(C)[C@H](CC[C@@H]4[C@@]5(C)CC[C@H](O)C(C)(C)[C@@H]5CC[C@]43C)[C@@H]12` [LUPEOL], the IC50 with BV-2 [1] was over 100 µM.

As for `CN(C)c1ccc(O)c2c1C[C@H]1C[C@H]3[C@H](N(C)C)C(O)=C(C(N)=O)C(=O)[C@@]3(O)C(O)=C1C2=O` [MINOCYCLINE], in the series with BV-2 [1], the IC50 worked out at 9.07 µM.

With `O=C(O)/C=C/c1ccccc1O` [O-COUMARIC ACID], the IC50 in the series on BV-2 [1] was over 100 µM.

Take `COc1ccc(-c2coc3cc(O)c(OC)cc3c2=O)cc1O` [ODORATIN]: in the series on BV-2 [2], the Activity result is reported as “Non-Toxic”. Besides, in the series with BV-2 [1], the IC50 was determined as 18.5 µM.

For `O=C(O)c1ccc(O)cc1` [PARABEN], the IC50 in the series on BV-2 [1] was over 100 µM.

Take `Oc1cc(O)cc(/C=C/c2ccc(O)c(O)c2)c1` [PICEATANNOL]: the Activity result with BV-2 [2] was “Non-Toxic”. Further, the IC50 in the series on BV-2 [1] was found to be 80.5 µM.

Regarding `COc1ccc(-c2coc3cc(O)cc(O)c3c2=O)cc1O` [PRATENSEIN], in the series with BV-2 [1], the IC50 was over 100 µM.

Regarding `O=Cc1ccc(O)c(O)c1` [PROTOCATECHUALDEHYDE], the IC50 with BV-2 [1] was over 100 µM.

Turning to `O=C(O)c1ccc(O)c(O)c1` [PROTOCATECHUIC ACID], in the series on BV-2 [1], the IC50 is over 100 µM.

For `Oc1ccc(/C=C/c2cc(O)cc(O)c2)cc1` [RESVERATROL], the Activity entry in the series with BV-2 [2] is “Non-Toxic”. In the series with BV-2 [1], the IC50 is 18.7 µM.
